From article PMC4151877 (Science (New York, N.Y.), 2014)

What was measured:
NaAtm1 [1] = target: T1, NaAtm1 (Novosphingobium aromaticivorans, UniProt Q2G506); assay: ligand-stimulated ATPase activity; format: biochemical; settings: ATP hydrolysis
T1 sequence (Q2G506 1-608): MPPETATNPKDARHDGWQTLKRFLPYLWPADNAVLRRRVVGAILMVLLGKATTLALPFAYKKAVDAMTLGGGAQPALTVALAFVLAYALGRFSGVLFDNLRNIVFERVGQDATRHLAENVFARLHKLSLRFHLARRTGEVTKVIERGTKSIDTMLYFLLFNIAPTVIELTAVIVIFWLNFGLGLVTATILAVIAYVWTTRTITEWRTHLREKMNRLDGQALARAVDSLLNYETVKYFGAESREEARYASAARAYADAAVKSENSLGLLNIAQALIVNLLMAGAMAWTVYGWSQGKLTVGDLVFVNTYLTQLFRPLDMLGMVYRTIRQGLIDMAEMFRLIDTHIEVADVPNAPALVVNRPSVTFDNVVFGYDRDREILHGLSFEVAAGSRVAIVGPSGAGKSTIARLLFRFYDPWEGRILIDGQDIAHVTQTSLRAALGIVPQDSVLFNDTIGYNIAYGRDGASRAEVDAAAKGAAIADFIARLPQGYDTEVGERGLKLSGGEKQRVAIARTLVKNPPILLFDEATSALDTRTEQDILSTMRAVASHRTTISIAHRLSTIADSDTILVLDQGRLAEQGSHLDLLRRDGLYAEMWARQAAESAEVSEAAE

NaAtm1 [2] = target: T1, NaAtm1; assay: ligand-stimulated ATPase activity, Michaelis-Menten type analysis; format: biochemical; settings: ATP hydrolysis; stimulating ligand varied

SMILES | ATPase stimulation (NaAtm1 [1]) | Km (NaAtm1 [2])
N[C@@H](CS)C(=O)NCC(=O)O [Cys-Gly] | exhibit stronger ATPase activities relative to Cys-Gly and mono-carboxylic acids | –
CSCC[C@H](N)C(=O)O [Met] | free amino acids Gly and Met to stimulate ATPase activity as effectively as GSH | –
N[C@@H](CCC(=O)N[C@@H](CS)C(=O)O)C(=O)O [γ-Glu-Cys] | – | γ-peptides GSH, γ-Glu-Cys, and ophthalmic acid
